{"source": "patent US8173595B2", "about": "“Methods and compositions for the inhibition of thrombus formation” (The Board of Trustees of the University of Illinois, priority 2004, dated 2012)", "key": {"[1]": {"system": "platelets (platelet-rich plasma from healthy donors)", "assay": "Ristocetin-induced (vWF-dependent) platelet aggregation in platelet-rich plasma", "format": "cell-based, human", "procedure": "(§1) Platelet preparation and aggregation. Blood was drawn from healthy donors, and was anti-coagulated with 1/10 volume of 3.8% trisodium citrate. Platelet-rich plasma (PRP) was obtained by centrifugation at 300×g for 20 min at 22° C. Platelet aggregation was measured using a turbidometric platelet aggregometer at 37° C. with a stirring speed at 1000 rpm. To examine the effects of peptides, various concentrations of each peptide was preincubated with platelets at 22° C. for 5 min. In some experiments, intergrin inhibitor RGDS (1 mM) was also added to exclude the roles of β3 integrins."}, "[2]": {"molecular_target": "T1, 14-3-3 binding to GPIb-IX (Homo sapiens, UniProt P63104)", "T1 construct": "GPIb-IX: platelet lysate", "T1 sequence (P63104 1-245)": "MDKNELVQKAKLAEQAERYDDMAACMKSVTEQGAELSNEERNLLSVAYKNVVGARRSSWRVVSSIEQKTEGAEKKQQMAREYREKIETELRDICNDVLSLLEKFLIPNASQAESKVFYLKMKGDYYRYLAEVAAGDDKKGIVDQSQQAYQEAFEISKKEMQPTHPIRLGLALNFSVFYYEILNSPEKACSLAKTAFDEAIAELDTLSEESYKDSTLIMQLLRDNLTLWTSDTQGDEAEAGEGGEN", "assay": "Binding of GPIb-IX from platelet lysates to 14-3-3-conjugated beads (Western blot)", "conditions": "recombinant 14-3-3-MBP beads, FIG. 1B", "procedure": "14-3-3 binding to GPIb-IX. Binding of GPIb-IX to 14-3-3-conjugated beads were performed as previously described (Du et al., J. Biol. Chem., 271:7362-7367 (1996)). Briefly, 14-3-3-conjugated Sepharose 4B beads and maltose-binding protein (MBP)-conjugated control beads were preincubated with various concentrations of synthetic peptides at 4° C. for 1 h, and then with platelet lysates for an additional 1 h. The beads were washed three times. Bound GPIb-IX was detected by Western blot with a monoclonal antibody against GPIbα, WM23."}, "[3]": {"system": "GPIb-IX-dependent platelet agglutination", "assay": "Ristocetin-induced GPIb-IX-specific platelet agglutination in the presence of RGDS", "format": "cell-based, human", "conditions": "PRP, in the presence of 1 mM RGDS, ristocetin 1.25 mg/ml, FIG. 2A, 2B", "procedure": "as §1"}, "platelets": {"system": "platelets", "assay": "Botrocetin-induced platelet agglutination", "format": "cell-based"}, "[4]": {"system": "platelets (platelet-rich plasma)", "assay": "Platelet aggregation induced by ADP, collagen or thromboxane A2 analog U46619", "format": "cell-based, human", "conditions": "collagen, thromboxane A2 analog U46619, FIGS. 2C, 2D, 2E", "procedure": "as §1"}, "[5]": {"system": "vWF binding to GPIb-IX on washed human platelets", "assay": "Flow cytometry analysis of ristocetin-induced vWF binding to platelets", "format": "cell-based", "conditions": "10 mM EDTA or RGDS, ristocetin 1 mg/ml, FIG. 3", "procedure": "Flow cytometry analysis of VWF binding to platelets. Flow cytometry analysis of vWF binding to platelets has been described previously 8,9. Washed platelets (1.0×10^7/ml) were prepared as described previously (Englund et al., J. Biol. Chem., 276:16952-16959 (2001); Bodnar et al., J. Biol. Chem. 277:47080-47087 (2002)), and resuspended in phosphate-buffered saline (PBS) solution (0.01 M NaH2PO4, 0.15 M NaCl, pH 7.4) containing 10 mM EDTA and 1% BSA. Platelets were preincubated with various concentrations of synthetic peptides at 22° C. for 10 min before incubating with purified vWF (35 μg/ml) and ristocetin (1.0 mg/ml) at 22° C. for 30 min. Platelets were washed once, further incubated in the same buffer containing 10 μg/ml FITC-labeled SZ-29 in the dark at 22° C. for 30 min and then analyzed by flow cytometry. As negative controls, platelets were incubated in the presence of ristocetin alone then incubated with FITC-labeled SZ29."}, "platelet adhesion to vWF": {"system": "platelet adhesion to vWF", "assay": "Platelet adhesion under flow in vWF-coated glass capillaries", "format": "cell-based", "conditions": "washed platelets, in the presence of RGDS, FIG. 4A", "procedure": "Platelet adhesion under flow. Washed platelets (3×10^8/ml) were preincubated with various concentrations of synthetic peptides at 22° C. for 10 min, the platelets were perfused into the vWF-coated glass capillaries using a PhD syringe pump (Harvard Apparatus Inc.) at various shear rates for 8 min. Transient adhesion of platelets on the vWF-coated surface was recorded on video cassette recorder. Adherent platelets were counted in 10 randomly selected fields of 0.25 mm^2 within a 10 second time period."}, "Tail-bleeding time": {"assay": "Tail-bleeding time", "format": "in vivo, C57 black mice", "conditions": "infused into jugular vein, 5 min circulation, compared with MαC or MαCsc, p<0.0001, FIG. 4B", "procedure": "Tail-bleeding time. Bleeding times were performed with 6-8-wk-old adult C57 black mice anesthetized with an intraperitoneal injection of avertin. The internal jugular vein was surgically exposed, and a total volume of 50 μl of a peptide (5 mM) was infused using a 27 G needle. Experiments were performed in a double-blinded fashion. After 5 min, tails were amputated 5 mm from the tail tip, and immersed in a tube containing 0.15M NaCl maintained at 37° C. Bleeding was visually followed and timed. Maximum bleeding time allowed was 10 min after which the tail was cauterized. Statistical differences between the groups were examined using Mann-Whitney test and InStat software."}}, "note": "Where no end group is shown, it is not given here. [ ]: non-standard residue; d: D form. The star is where a group is joined. Myristoyl = CCCCCCCCCCCCCC(=O)*; pS = N[C@@H](COP(=O)(O)O)C(=O)O", "data": [{"molecule": "CCCCCCCCCCCCCC(=O)OC(=O)CCCCCCCCCCCCC", "note": "[myristic anhydride (MA), myristic anhydride]", "values": [{"measurement": "ristocetin-induced platelet aggregation", "setting": "[1]; PRP, 100 μM, FIG. 1D, 1E", "value": "no effect"}]}, {"molecule": "SIRYSGHpSL [PαC]", "values": [{"measurement": "ristocetin-induced platelet aggregation", "setting": "[1]; PRP, 100 μM, FIG. 1D, 1E", "value": "no effect"}]}, {"molecule": "C13H27CONH-SIRYSGHSL (Myristoyl-SIRYSGHSL) [MαC]", "values": [{"measurement": "binding of GPIb-IX to 14-3-3 beads", "setting": "[2]", "value": "not"}, {"measurement": "ristocetin-induced platelet aggregation", "setting": "[1]; PRP, 100 μM, FIG. 1D, 1E", "value": "no significant effect"}]}, {"molecule": "C13H27CONH-SIRYSGHpSL (Myristoyl-SIRYSGH[pS]L) [MPαC]", "values": [{"measurement": "binding of GPIb-IX to 14-3-3 beads", "setting": "[2]", "value": "abolished"}, {"measurement": "vWF-dependent platelet aggregation induced by ristocetin", "setting": "[1]; PRP preincubated with increasing concentrations of peptide, FIG. 1C", "value": "dose-dependently inhibited"}, {"measurement": "ristocetin-induced platelet agglutination", "setting": "[3]", "value": "completely inhibited"}, {"measurement": "botrocetin-induced platelet agglutination", "setting": "platelets", "value": "inhibited"}, {"measurement": "platelet aggregation induced by platelet agonists", "setting": "[4]", "value": "no inhibitory effect"}, {"measurement": "ristocetin-induced vWF binding to platelets", "setting": "[5]", "value": "inhibited"}, {"measurement": "adhesion of platelets on vWF surface under flow", "setting": "platelet adhesion to vWF", "value": "almost no adhesion"}, {"measurement": "median tail bleeding time", "setting": "Tail-bleeding time", "value": "significantly prolonged"}]}, {"molecule": "C13H27CONH-LSISYGSHR (Myristoyl-LSISYGSHR) [MαCsc, myristoylated scrambled control peptide]", "values": [{"measurement": "binding of GPIb-IX to 14-3-3 beads", "setting": "[2]", "value": "not"}, {"measurement": "ristocetin-induced platelet aggregation", "setting": "[1]; PRP, 100 μM, FIG. 1D, 1E", "value": "no significant effect"}]}, {"molecule": "C13H27CONH-SIRYSGHDL (Myristoyl-SIRYSGHDL) [MSDαC, myristoylated peptide replacing phosphorylated serine 609 with aspartic acid to simulate phosphoserine]", "values": [{"measurement": "ristocetin-induced platelet aggregation", "setting": "[1]; PRP preincubated at room temperature for 5 min, FIG. 5", "value": "completely inhibited"}]}]}
